# Counter-ions that a name gives are not always drawn. Like-named read-outs stand apart in the source and are kept apart here.
# Experiments:
# Zucker fa/fa rat [1] = assay: Experiment I: body weight and serum analysis of Zucker fa/fa rats given D,L-malic acid, sodium salt in drinking water; format: in vivo; design: Serum T Chol / Serum HDL / Serum LDL / Serum VLDL / Serum Glucose: unit not given here; conditions: for Body Wt. / Serum Glucose / Serum HDL / Serum T Chol / Serum Triglyceride / Serum BUN / Serum Creatine / Serum K+ / Serum Na+ / Serum ALT / Serum AST / Serum LDL / Serum VLDL: mean ± SEM; for Body Wt.: in g; for Serum BUN / Serum Creatine: in mg/dL (unit assumed); for Serum K+ / Serum Na+: in mmol/L (unit assumed); for Serum ALT / Serum AST: in U/L (unit assumed); for Serum VLDL: calculated
# Source text: The Zucker fa/fa rat model was selected to test the effects of malic acid supplements to the diet. The Zucker fa/fa rat is a genetically obese rat associated to elevated leptin levels in the blood. Among humans and most animal models, leptin is known to […], leading to elevated caloric intake and obesity. Associated with the leptin production is an elevation in serum insulin (Giridharan 1998). Thus, obesity can arise from the increase food intake and/or the lipogenic effects of insulin on adipose tissue and liver.
# Two separate experiments were conducted on the Zucker fa/fa rat. The first experiment served as a pilot study for the second. In Experiment I, ten male, 7-week-old Zucker fa/fa rats were divided into two parametric groups based upon the results of a clinical serum analysis for lipids, glucose, hepatic enzymes, and ions. […] The control group of five rats received only tap water. After 2, 4, 7, and 10 and 12 weeks of treatment, 1-2 mL whole blood was collect from each rat via the tail caudal vein and the serum retained for analysis. All serum analysis was conducted in the out-patient clinical laboratory of the University Hospital of the University of Alabama at Birmingham with a Synchron LX System. The following methods for each parameter are used in their automated clinical systems.
# [2] = test system: liver of Zucker fa/fa rat; assay: Experiment I: hepatic nucleotide analysis by HPLC of frozen-acid extracted liver; format: in vivo; conditions: 12 weeks treatment
# Description: After eight weeks of treatment, Experiment I was concluded with all ten rats being anesthetized with pentobarbital (40 mg/kg, i.p). Immediately prior to the rat's euthanasia, a portion of the medial lobe of the liver was weighed, immediately frozen, pulverized and extracted in 12% perchloric acid in dry ice for nucleotide analysis. The acid extracted tissue was thawed, neutralized in saturated potassium bicarbonate and centrifuged at 10,000×g for 15 minutes. The final supernatant was analyzed for nucleotides by HPLC according to the method of Jenkins, et al (1988).
# Zucker fa/fa rat [3] = test system: Zucker fa/fa rat
# Description: After eight weeks of treatment, Experiment I was concluded with all ten rats being anesthetized with pentobarbital (40 mg/kg, i.p). […] In addition to body weight, the heart, liver, epididymal fat and left kidney were weighed. The aorta and a portion of the medial lobe of the liver were fixed in buffered 10% formalin and prepared for paraffin embedding and sectioning for pathological analysis.
# Zucker fa/fa rat [4] = conditions: in vivo
# Description: (§1) In experiment II, forty male Zucker fa/fa rats at five to seven weeks of age began treatment similarly to the rats in Experiment I. At about 5 weeks of age, whole blood was collected from the tail caudal vein of each rat and lipid profiles were measured on the serum.
# (§2) Food and water consumption was measured daily for each cage of two rats. Body weight was measured and tail caudal vein blood samples were collected at 6, 8, 10, 12, 14, 16, and 18 and 24 weeks of age. Rats received their oral treatment of malic acid isomers prior to the onset of hyperlipidemia and continued for 16 weeks. The lipid/liver profile was measured on the serum of each rate with the determination of serum triglycerides, total cholesterol, HDL, glucose, AST and ALT with the same procedures of Experiment I.
# (§3) Experiment II. This follow-up experiment doubled the number of rats per group (ten/group) and included treatment groups to distinguish the roles of the D isomer and the L isomer of malic acid (Control, L-Malic, D,L-Malic, and D-Malic Acid).
# Zucker fa/fa rat [5] = assay: Experiment I: body weight and serum analysis of Zucker fa/fa rats given D,L-malic acid, sodium salt in drinking water; format: in vivo
# Zucker fa/fa rat [6] = assay: Experiment II: L-, D,L- and D-malic acid in drinking water, food/water consumption, body weight, serum lipid/liver profile; conditions: for linear slope of body weight versus serum triglycerides, vs control and L-malic acid treated rats: FIG. 3, p≦0.01; for effect on serum lipid levels (hypolipidemic effect): oral, Zucker obese rat, conclusion in words; for water consumption, means between groups: L-malic acid vs control at 10 and 11 weeks of treatment
# Description: as §1, §2, §3
# liver mitochondria = conditions: for concentrations at which not metabolized by mitochondria: oxygen consumption, FIG. 5
# Description: To determine the effect of D-malic acid on hepatic mitochondria, mitochondria from the Sprague Dawley rat used for isoenzyme studies were prepared according to the method of Johnson and Lardy (1967). The […] pellet was resuspended in cold sucrose buffer and recentrifuged at 600×g. This supernatant was mixed with the original 600×g supernatant. The 10,000×g mitochondria pellet was suspended in 5 mL of sucrose buffer. […] Consumption of oxygen was represented as percent of oxygen saturation.
# [7] = after four and six weeks of treatment, but not beyond, P≦0.05
# [8] = −2 weeks Treatment (before dosing)
# [9] = after 18 and 24 weeks of treatment, P≦0.01
smiles,measurement,setting,value
"O=C(O)CC(O)C(=O)O (racemic) [D,L-malic acid, D,L-malic acid, sodium salt]",Body Wt.,Zucker fa/fa rat [1]; 0 weeks Treatment (start of dosing),484 ± 10
same,Serum Glucose,Zucker fa/fa rat [1]; 2 weeks Treatment,167 ± 14
same,Serum HDL,Zucker fa/fa rat [1]; 2 weeks Treatment,92 ± 4
same,Serum T Chol,Zucker fa/fa rat [1]; 2 weeks Treatment,96 ± 5
same,Serum Triglyceride,Zucker fa/fa rat [1]; 2 weeks Treatment,358 ± 51 mg %
same,Body Wt.,Zucker fa/fa rat [1]; 2 weeks Treatment,553 ± 14
same,Serum BUN,Zucker fa/fa rat [1]; 2 weeks Treatment,13 ± 0.5
same,Serum Creatine,Zucker fa/fa rat [1]; 2 weeks Treatment,.42 ± .02
same,Serum K+,Zucker fa/fa rat [1]; 2 weeks Treatment,5.6 ± 0.3
same,Serum Na+,Zucker fa/fa rat [1]; 2 weeks Treatment,141 ± 0.6
same,Serum Glucose,Zucker fa/fa rat [1]; 4 weeks Treatment,156 ± 12
same,Serum HDL,Zucker fa/fa rat [1]; 4 weeks Treatment,87 ± 3
same,Serum T Chol,Zucker fa/fa rat [1]; 4 weeks Treatment,99 ± 5
same,Serum Triglyceride,Zucker fa/fa rat [1]; 4 weeks Treatment,522 ± 82 mg %
same,Serum ALT,Zucker fa/fa rat [1]; 4 weeks Treatment,64 ± 4
same,Serum AST,Zucker fa/fa rat [1]; 4 weeks Treatment,145 ± 13
same,Body Wt.,Zucker fa/fa rat [1]; 4 weeks Treatment,592 ± 15
same,Serum BUN,Zucker fa/fa rat [1]; 4 weeks Treatment,12 ± 0.6
same,Serum Creatine,Zucker fa/fa rat [1]; 4 weeks Treatment,.38 ± .02
same,Serum K+,Zucker fa/fa rat [1]; 4 weeks Treatment,5.8 ± 0.1
same,Serum Na+,Zucker fa/fa rat [1]; 4 weeks Treatment,143 ± 1.1
same,Serum Glucose,Zucker fa/fa rat [1]; 7 weeks Treatment,173 ± 10
same,Serum HDL,Zucker fa/fa rat [1]; 7 weeks Treatment,110 ± 5
same,Serum T Chol,Zucker fa/fa rat [1]; 7 weeks Treatment,120 ± 8
same,Serum Triglyceride,Zucker fa/fa rat [1]; 7 weeks Treatment,422 ± 44 mg %
same,Serum ALT,Zucker fa/fa rat [1]; 7 weeks Treatment,68 ± 2
same,Serum AST,Zucker fa/fa rat [1]; 7 weeks Treatment,126 ± 6
same,Body Wt.,Zucker fa/fa rat [1]; 7 weeks Treatment,660 ± 19
same,Serum BUN,Zucker fa/fa rat [1]; 7 weeks Treatment,11 ± 0.3
same,Serum Creatine,Zucker fa/fa rat [1]; 7 weeks Treatment,.34 ± .02
same,Serum K+,Zucker fa/fa rat [1]; 7 weeks Treatment,5.4 ± 0.2
same,Serum Na+,Zucker fa/fa rat [1]; 7 weeks Treatment,144 ± 0.4
same,Serum Glucose,Zucker fa/fa rat [1]; 10 weeks Treatment,141 ± 10
same,Serum HDL,Zucker fa/fa rat [1]; 10 weeks Treatment,107 ± 10
same,Serum LDL,Zucker fa/fa rat [1]; 10 weeks Treatment,1.4 ± 1.4
same,Serum T Chol,Zucker fa/fa rat [1]; 10 weeks Treatment,123 ± 14
same,Serum Triglyceride,Zucker fa/fa rat [1]; 10 weeks Treatment,430 ± 39 mg %
same,Serum VLDL,Zucker fa/fa rat [1]; 10 weeks Treatment,4 ± 4
same,Serum ALT,Zucker fa/fa rat [1]; 10 weeks Treatment,69 ± 4
same,Serum AST,Zucker fa/fa rat [1]; 10 weeks Treatment,94 ± 2
same,Body Wt.,Zucker fa/fa rat [1]; 10 weeks Treatment,708 ± 26
same,Serum BUN,Zucker fa/fa rat [1]; 10 weeks Treatment,16 ± 1.2
same,Serum Creatine,Zucker fa/fa rat [1]; 10 weeks Treatment,.32 ± .02
same,Serum K+,Zucker fa/fa rat [1]; 10 weeks Treatment,6.6 ± 0.2
same,Serum Na+,Zucker fa/fa rat [1]; 10 weeks Treatment,143 ± 0.8
same,Serum Glucose,Zucker fa/fa rat [1]; 12 weeks Treatment,153 ± 9
same,Serum HDL,Zucker fa/fa rat [1]; 12 weeks Treatment,117 ± 9
same,Serum LDL,Zucker fa/fa rat [1]; 12 weeks Treatment,6 ± 0.4
same,Serum T Chol,Zucker fa/fa rat [1]; 12 weeks Treatment,137 ± 14
same,Serum Triglyceride,Zucker fa/fa rat [1]; 12 weeks Treatment,437 ± 35 mg %
same,Serum VLDL,Zucker fa/fa rat [1]; 12 weeks Treatment,14 ± 5
same,Serum ALT,Zucker fa/fa rat [1]; 12 weeks Treatment,71 ± 6
same,Serum AST,Zucker fa/fa rat [1]; 12 weeks Treatment,115 ± 16
same,Body Wt.,Zucker fa/fa rat [1]; 12 weeks Treatment,722 ± 30
same,Serum Creatine,Zucker fa/fa rat [1]; 12 weeks Treatment,.34 ± .02
same,Serum K+,Zucker fa/fa rat [1]; 12 weeks Treatment,6.4 ± 0.1
same,Serum Na+,Zucker fa/fa rat [1]; 12 weeks Treatment,141 ± 0.6
same,serum ALT vs control,Zucker fa/fa rat [1]; [7],significantly lowered
same,"serum glucose, sodium, or potassium, HCO3, chloride, and BUN levels vs control",Zucker fa/fa rat [1]; in words,no detectable affect
same,serum triglyceride levels vs control,"Zucker fa/fa rat [1]; ten and twelve weeks of treatment, P≦0.001",differences were more remarkable
same,effect on body weight,"Zucker fa/fa rat [1]; vs control, in words",no effect
same,Serum Glucose,Zucker fa/fa rat [1]; [8],147 ± 2
same,Serum HDL,Zucker fa/fa rat [1]; [8],90 ± 3
same,Serum T Chol,Zucker fa/fa rat [1]; [8],91 ± 4
same,Serum Triglyceride,Zucker fa/fa rat [1]; [8],387 ± 41 mg %
same,Body Wt.,Zucker fa/fa rat [1]; [8],359 ± 6
same,Serum BUN,Zucker fa/fa rat [1]; [8],21 ± 0.9
same,Serum Creatine,Zucker fa/fa rat [1]; [8],0.46 ± 0.02
same,Serum K+,Zucker fa/fa rat [1]; [8],6.1 ± 0.2
same,Serum Na+,Zucker fa/fa rat [1]; [8],147 ± 0.2
same,hepatic tissue NAD levels vs control,[2],elevated but not significantly
same,hepatic tissue levels of NADP vs control,[2],significantly elevated
same,mean hepatic purine nucleotides vs control,[2],No significant differences
same,Mean Hepatic Purine Dinucleotide Levels: NAD,[2]; ± SEM,350 ± 23 nmoles/gm tissue wet wt.
same,Mean Hepatic Purine Nucleotides Level: ADP,[2]; ± SEM,125 ± 7 nmoles/gm tissue wet wt.
same,Mean Hepatic Purine Nucleotides Level: AMP,[2]; ± SEM,168 ± 18 nmoles/gm tissue wet wt.
same,Mean Hepatic Purine Nucleotides Level: ATP,[2]; ± SEM,556 ± 35 nmoles/gm tissue wet wt.
same,Mean Hepatic Purine Nucleotides Level: Adenosine,[2]; ± SEM,65 nmoles/gm tissue wet wt.
same,Mean Hepatic Purine Dinucleotide Levels: NADP,"[2]; ± SEM, significantly different P ≦ 0.05",61.7 ± 3.8 nmoles/gm tissue wet wt.
same,histological examination of the aorta,Zucker fa/fa rat [3]; 12 week (20 weeks of age),no pathology associated with plaque formation
same,"Percent Fatty Deposition in Hepatocytes, Mean of 200 cells/rat ± SEM","Zucker fa/fa rat [3]; 12 week treated, liver sections 8 um",45.69 ± 0.62%
same,Mean Organ Weights: Epididymal Fat,"Zucker fa/fa rat [3]; 12 week treated, ± SEM",0.350 ± .050 gram
same,percent of fatty inclusions in hepatocytes vs control,"Zucker fa/fa rat [3]; 200 hepatocytes, liver sections 8 um",no significant differences
same,"water consumption, means between groups",Zucker fa/fa rat [4],did not differ
same,serum HDL cholesterol vs control,"Zucker fa/fa rat [5]; after eight weeks of treatment, P≦0.05",significant decrease
same,serum AST vs control,Zucker fa/fa rat [5]; [7],significantly lowered
same,serum total cholesterol vs control,"Zucker fa/fa rat [5]; after six weeks of treatment, P≦0.05",significant decrease
same,serum triglyceride levels vs control,"Zucker fa/fa rat [5]; two to eight weeks of treatment, P≦0.01",significantly decreased
same,"linear slope of body weight versus serum triglycerides, vs control and L-malic acid treated rats",Zucker fa/fa rat [6],differs significantly
same,mean serum triglycerides vs controls,Zucker fa/fa rat [6]; [9],decreased below controls
same,effect on serum lipid levels (hypolipidemic effect),Zucker fa/fa rat [6],significant hypolipidemic effect
"O=C(O)C[C@H](O)C(=O)O [L-malic acid, L-malic acid, sodium salt, reference compound]",food consumption (rat chow consumed/rat/day) vs control,Zucker fa/fa rat [6]; 6 to 20 weeks of age,tended to eat more rat chow
same,mean serum levels of triglycerides vs control,Zucker fa/fa rat [6]; 8 to 24 weeks of age,no significant difference
same,mean serum total cholesterol vs control,Zucker fa/fa rat [6]; 8 to 24 weeks of age,no significant difference
same,"water consumption, means between groups",Zucker fa/fa rat [6]; sodium salt,Significant differences
same,mean serum triglycerides vs controls,Zucker fa/fa rat [6]; after 24 weeks of age (18 weeks of treatment),greater mean serum triglycerides than controls but not statistically significant
same,mean serum glucose vs control,"Zucker fa/fa rat [6]; only weeks 8 and 16, P≦0.05",sporadically (only weeks 8 and 16) elevated
same,effect on serum lipid levels (hypolipidemic effect),"Zucker fa/fa rat [6]; listed as L-isomer of malic acid, sodium salt",no effect
"O=C(O)C[C@@H](O)C(=O)O [D-malic acid, D-malic acid, sodium salt]",effect on the metabolism of L-malic acid by mitochondria,liver mitochondria; 20 umoles/5 mL D-malic acid,inhibited
same,transport of L-malic acid into the mitochondria,liver mitochondria; mitochondrial incubations,partially blocks
same,concentrations at which not metabolized by mitochondria,liver mitochondria,less than 40 umoles/5 mL
same,concentrations at which not metabolized by mitochondria,liver mitochondria; converted,< 6.7 mM
same,"linear slope of body weight versus serum triglycerides, vs control and L-malic acid treated rats",Zucker fa/fa rat [6],differs significantly
same,"water consumption, means between groups",Zucker fa/fa rat [6],did not differ
same,mean serum triglycerides compared to controls,"Zucker fa/fa rat [6]; after 12 weeks and beyond of treatment, P≦0.05",lowered
same,mean serum triglycerides vs controls,Zucker fa/fa rat [6]; [9],decreased below controls
same,effect on serum lipid levels (hypolipidemic effect),Zucker fa/fa rat [6],effective
